Common to all, as to format: cell-based, human
One assay relates to Lyn. Nature of the assay: p27 Tyr-88 phosphorylation in 293T cells transfected with Lyn (Western blot, anti-phospho-Y88). The settings on record: 10 μM STI-571. Here is the method:
(§1) HA-tagged p27 was transfected in 293T cells with a Bcr-Abl or Lyn encoding plasmids. […] Equal amounts of cell lysates were analyzed by Western blotting with monoclonal anti-phospho-Y88 antibodies and HRP-conjugated anti-p27 antibodies as indicated. b. […] Western blot analysis was performed with monoclonal anti-phospho-Y88 and HRP-conjugated anti-p27 antibodies. c. […] Cells (1×10^7/ml) were labeled with a ^35S labeled methionine/cysteine mix for 1 hour, and subsequently incubated in the absence of radioactivity for the indicated times. p27 was immunoprecipitated using anti-p27 antibodies. The labeled protein was visualized by autoradiography. The intensity of the bands was determined using a PhosphorImager and is expressed as a fraction of the time point 0. […] One representative experiment is shown.
(In general: Immunoblotting shows a protein as a band on a membrane.)

Assay [1] concerns K562 cells. In words: p27 protein level in K562 cells (Western blot). The settings on record: 2 or 10 μM STI-571 for 16 hours. Here is the method: as §1
(§2) Tyr-88 phosphorylation of p27 in a Bcr-Abl transformed tumor cell line was investigated next. K562 chronic myelogenous leukaemia cells express p210 Bcr-Abl kinase that is sensitive to inhibition with ST-571.

Assay [2] has as its system K562 cells. In words: p27 stability in K562 cells (35S pulse-chase). The settings on record: 10 μM STI-571 for 16 hours. Here is the method:
as §1, §2

Assay [3] deals with K562 cells. In words: Cell cycle analysis by flow cytometry (BrdU/PI) of transfected K562 CML cells. The settings on record: moderate expression, 48 hours after transfection, GFP-sorted. Here is the method: FIG. 9: p27 Y88F arrests K562 CML cells in G1 phase of the cell cycle. K562 CML cells were transfected with GFP and either 25 ug of p27 or 25 ug of p27-Y88F expression vector. 48 hours after transfection, cells with similar GFP expression level were isolated by flow cytometry cell sorting and the cell cycle distribution of these cells was determined using BrdU incorporation and PI staining. The distribution of these cells in the cell cycle phases is shown. Only p27-Y88F expression leads to an accumulation of G1 phase cells and reduced cells in S-phase.
The percentage of cells in the G1, S and G2/M phases of the cell cycle was determined by two dimensional flow cytometry. The DNA content was determined by staining DNA with the intercalating dye propidium iodide and quantifying the cell fractions with differing DNA content by flow cytometry. In addition, cells in S-phase were labelled with the nucleotide analog bromo 5-bromo-2′-deoxyuridine (BrdU), which is incorporated into newly synthesized DNA. […] Cells were analyzed on FACS ([…] Dickinson) flow cytometer using the CellQuest software. […]
(In flow cytometry, cells or beads pass a laser one at a time.)

In the case of `Cc1ccc(NC(=O)c2ccc(CN3CCN(C)CC3)cc2)cc1Nc1nccc(-c2cccnc2)n1` [STI-571, 4-[(4-Methyl-1-piperazinyl)methyl]-N-[4-methyl-3-[[4-(3-pyridinyl)-2-pyrimidinyl]amino]-phenyl] benzamide methane sulfonate], in the assay with Lyn, the “Tyr-88 phosphorylation of p27 by Lyn” value is “no effect”. The p27 protein level entry with K562 cells [1] was “dramatic increase”. In addition, the p27 stability entry with K562 cells [2] is “increase”.

In the case of “p27-Y88F: mutant of p27 where tyrosine 88 is exchanged to phenylalanine”, in the assay on K562 cells [3], the S-phase entry result is “impaired” and the “effect on cell cycle / accumulation of cells in G1 phase” value is “increasing cells accumulating in G1 phase”.

(Values after patent publication US20080026992A1, “Tyrosine Phosphorylation of Cdk Inhibitor Proteins of the Cip/Kip Family” (priority 2003, published 2008).)
